Row | Compound | melting point
1 | CSc1ccc(/C=C2/C(C)=C(CCCCN(O)C(N)=O)c3cc(F)ccc32)cc1 | 154 to 157 °C
2 | Brc1ccc2c(c1)OCCN2C1CCOCC1 | 66.2 °C
3 | COc1cc(OC)c(C2C=CCN(C)C2)c(OC)c1 (stereo not given) | 118 to 122 °C
4 | CN(C)C(=O)c1ccccc1N | 53 to 54 °C
5 | CCc1cccc(C)c1CNc1nc(OCCOC)cc(NC)c1[N+](=O)[O-] | 135 to 136 °C
6 | CCSC1(S)CCC2C3CCC4=CC(=O)C=CC4(C)C3(F)C(O)CC21C (stereo not given) | 239 to 242 °C
7 | COc1c(O)c([N+](=O)[O-])cc(C(=O)c2ccccc2)c1Cl | 143 to 145 °C
8 | COc1cc2c(cc1Nc1ncc(Cl)c(N[C@@H]3CCCC[C@H]3NS(C)(=O)=O)n1)CCN(CC(F)(F)F)CC2 | 103 to 110 °C
9 | CCc1c(-c2ccncc2)[nH]c2ccc(C3=NNC(=O)CC3)cc12 | > 300 °C
10 | COC(=O)c1cc(F)ccc1Nc1ccnc2cc(Cl)ccc12 | 180 °C
11 | c1ccc(Cn2c(NC3CCN(C4CCCCC4)CC3)nc3ccccc32)cc1 | 143 °C
12 | COc1ccc(CC2C3=C(CCCC3)CCN2C(=O)C2CCC2)cc1 (stereo not given) | 89 to 91 °C
13 | ClCc1cc(Cl)nc(Cl)n1 | 32 to 33 °C
14 | CC(C)(C)[Si](OCC#Cc1ccc2ncc3c(c2c1)C(O)CCC3)(c1ccccc1)c1ccccc1 (stereo not given) | 132 to 133 °C
15 | CCOC(=O)C1CN(c2ccccc2)C(=O)C1=O (stereo not given) | 153 to 155 °C
16 | CC(=Cc1ccc(C(=O)O)cc1)c1ccc2c(c1)N(C)CCC2(C)C | 194 to 196 °C
17 | CC(C)C(NC(=O)OC(C)(C)C)C(=O)OCC1OC(n2cc(C=CBr)c(=O)[nH]c2=O)CC1Cl (stereo not given) | 75 to 76 °C
18 | CC(=O)NC[C@H]1CN(c2cc(F)c(N3CCS(=O)(=O)CC3)c(F)c2)C(=O)O1 | 187 to 190 °C
19 | O=Cc1ncn2c1[C@@H]1CCCN1C(=O)c1ccccc1-2 | 206 to 208 °C
20 | CCN(CC)c1ccc(Nc2nc(N)c(C(=O)c3ccc([N+](=O)[O-])cc3)s2)cc1 | 220 to 221 °C
21 | CN1CCCCC1CCc1ccccc1NC(=O)c1ccc(OC(C)(C)C)cc1 (stereo not given) | 91 to 93.5 °C
22 | Nc1n[nH]c2c(F)c(F)ccc12 | 183 °C
23 | COC(=O)c1cc(Cl)ccc1NC(=O)N(C)C | 114 °C
24 | CCOC(=O)CN(CC(=O)OCC)C(=O)c1cc(OCCCCCCCCCCCCOc2ccccc2)ccc1OCc1ccccc1 | 49 to 50 °C
25 | CC1(C)CCC(C)(C)c2cc(SCc3ccc(C(=O)O)cc3)ccc21 | 169 to 170 °C

Row | Compound | melting point
26 | CC(C)(C)OC(=O)N1C[C@H](NS(=O)(=O)c2ccc(Cl)cc2)C[C@H]1C=O | 120 to 122 °C
27 | CCCN1C(=O)N(C2CCN(Cc3cccc(CO)c3)CC2)C(c2ccccc2)c2ccccc21 (stereo not given) | 108 to 112 °C
28 | O=C1SCCN1Cc1ccc(Cl)cc1 | 68 to 69 °C
29 | O=S1(=O)C(c2ccsc2)=CCC=C1c1ccsc1 | 162 to 164 °C
30 | CCCCCN(Cc1ccc(-c2ccccc2S(=O)(=O)NC(=O)c2ccccc2Cl)cc1)C(=O)N1CCc2ccccc21 | 83 to 85 °C
31 | CC(C)(CCCN)C(Cc1c[nH]c([N+](=O)[O-])n1)=NO | 136 to 137 °C
32 | C=CCOc1ccc(C(O)CN2CCN(C(c3ccccc3)c3ccccc3)CC2)cc1 (stereo not given) | 100 °C
33 | C#CCN(C(=O)c1cn(C)cc1C(F)(F)F)c1cccc2c1C(C)CC2(C)C (stereo not given) | 142 to 144 °C
34 | CCOC(=O)c1nn(Cc2ccc(Cl)cc2C)c2ccccc12 | 120 to 122 °C
35 | COc1ccccc1[C@@]1(O)[C@@H]2CNC[C@@H]2C(c2ccccc2)(c2ccccc2)C[C@@H]1O | 230 °C
36 | CSC1CC(=O)N1CC(=O)OCc1ccccc1 (single isomer, unassigned; (-)) | 38 to 40 °C
37 | COC(=O)c1cc(C(=O)O)cc(C(=O)OC)c1C(=O)OC | 143 to 144 °C
38 | CC(=O)NCCCC(=O)N1CCCC2=C1CCc1cc(Cl)ccc12 | 142 to 143 °C
39 | CS(=O)(=O)c1cc([N+](=O)[O-])cc(O)c1O | 221 to 224 °C
40 | COc1ccc(-c2nn(Cc3ccc(Cl)cc3Cl)c(=O)cc2-c2ccncc2)cc1 | 151 to 153 °C
41 | NC(=O)c1sc2nccc(N3CCN(C/C=C/c4ccccc4)CC3)c2c1N | 225 to 227 °C
42 | COC(=O)c1cccc(-c2cn(C)cc(-n3cccn3)c2=O)c1 | 144 °C
43 | O=C(O)[C@@H]1Cc2cc(Cl)cc(Cl)c2S[C@H]1C(F)(F)F (relative stereo) | 165 to 170 °C
44 | S=C(NCCc1ccccc1Cl)Nc1nc2ccccc2[nH]1 | 166 to 169 °C
45 | Cn1ncnc1COc1nc2c(-c3c(F)cccc3F)nncn2c1-c1ccccc1 | 190 °C
46 | CCCCCc1c(C=CC(=O)OC)nc(C(C)C)c(CO)c1-c1ccc(F)cc1 | 82 to 83 °C
47 | CC(O)c1cc2c(c(Cl)n1)OCC2C (stereo not given) | 67 to 68 °C
48 | CC(C)Oc1nc(SCc2cccc(C(F)(F)F)c2)nc2[nH]c(=O)cnc12 | 205 to 206 °C
49 | Cn1c(C#N)ccc1-c1ccc2c(c1)C(C)(C)OC(=S)N2 | 228 to 229 °C
50 | CC(C)(C)c1cccc(S(=O)(=O)n2c(Cc3ccc(C(=O)O)c(F)c3)cc3cc(C(F)(F)F)ccc32)c1 | 144 °C

Row | Compound | melting point
51 | COCCOc1cc(/C=C/C(=O)O)n(Cc2ccc(Cl)cc2Cl)n1 | 171 to 172 °C
52 | C=Cc1ccc(-c2ccccc2F)cc1 | 38 °C
53 | N#CCc1cccc2c(-c3ccc(Br)cc3)nccc12 | 122 °C
54 | COc1cc(-c2ccc(N(C)CCN(C)c3ccc(-c4cc(OC)c(N5CCCC5)c(OC)c4)nc3)cn2)cc(OC)c1N1CCCC1 | 221 to 225 °C
55 | O=C(c1cccnc1)C(Cc1ccc(F)cc1)c1ccccc1 (stereo not given) | 100 to 102 °C
56 | COCCNC(=O)Cc1c(-c2ccc(C)cc2)nc2[nH]c3ccccc3n12 | 189 to 190 °C
57 | C#CC[C@H](c1nc2cc(Cl)ccc2c(=O)n1Nc1ccccc1)N(CCCN)C(=O)c1ccc(C)c(F)c1F | 175 to 180 °C
58 | Cc1c(Cc2ccccc2)[nH]c2ccccc2c1=O | 285 to 287 °C
59 | CC(=O)OC[C@H]1O[C@@H](c2ccc(C)c(Cc3ccc(-c4ccc(F)cc4)s3)c2)[C@H](OC(C)=O)[C@@H](OC(C)=O)[C@@H]1OC(C)=O | 160 to 170 °C
60 | CC1=C(C#N)C(c2cccc([N+](=O)[O-])c2)C2=C(CCCC2=O)N1 (stereo not given) | 214 to 216 °C
61 | CCOC(=O)COc1ccc2c(c1)CCCC2=O | 39 to 41 °C
62 | CC(=O)NCc1ccc(CN2CCN(c3ccc(F)cc3[N+](=O)[O-])CC2)cc1 | 94.5 to 96 °C
63 | CC(=O)Nc1sc2c(c1C(=O)c1ccco1)CCCC2 | 126 to 127 °C
64 | CC(C)N(C(=O)c1cccc2c1CCc1cc(F)ccc1S2)C(C)C | 149 to 150 °C
65 | Cc1cccc(Nc2nncc3ccccc23)c1 | 176 to 177 °C
66 | COc1ccc(C2CCNCC2)cc1OC | 98 to 100 °C
67 | CCOC(=O)c1cnc2cc(C)sc2c1O | 240 to 245 °C
68 | Cc1cnc(C(N)=O)cn1 | 204 to 206 °C
69 | CC(C=O)=CC=CC(C)=CCO | 42 to 45 °C
70 | CC(=O)Nc1ccc(C(=O)C2CCN(CC(=O)c3ccc(F)cc3)CC2)cc1 | 168 to 170 °C
71 | CC1(C)C(=O)Oc2ccc3ccc(Cn4cncn4)cc3c21 | 136 to 137 °C
72 | CCC(O)(c1ccc(OCCN2CCOCC2)cc1)c1cccc(C(F)(F)F)c1 (stereo not given) | 73 to 74 °C
73 | O=C1C=C(OCCCCCCO)c2ccccc2C1=O | 96 to 98 °C
74 | Cc1nc2ccccc2c(NCc2ccccc2)c1C(C)O (stereo not given) | 176 to 177 °C
75 | CCC(C)Cc1ccc(C(=O)O)cc1C#N (stereo not given) | 91.2 to 92.1 °C

Row | Compound | melting point
76 | CCCCCCCOc1ccc(C(=O)Cl)cc1OCCCCCCC | 57 to 58 °C
77 | COc1cc2c(cc1OC(C)C)OC(C)(C)C(Cl)=C2Cl | 80 to 85 °C
78 | CC1CC2C(=CCC3(C)C(C(=O)CCl)=CCC23)C2(C)C=CC(=O)C=C12 (stereo not given) | 164 °C
79 | Cc1ccc(-c2ccc3c(c2)C=C(C(=O)O)CC(c2ccccc2)O3)cc1 (stereo not given) | 296 to 297 °C
80 | CS(=O)(=O)Nc1ccc(S(=O)(=O)N2CCNc3nc4ccccc4n3CC2)cc1 | 192 to 200 °C
81 | COc1ccc(N2CCN(c3ccc(NC(=S)NC(C)(C)CO)cc3)CC2)cc1 | 222 °C
82 | c1cc(CN2CCc3cccc(CCc4nnn[nH]4)c32)cc(OCc2ccc3ccccc3n2)c1 | 148 to 151 °C
83 | COC(=O)c1sc2cc(OCc3cccnc3)ccc2c1Cl | 148 to 150 °C
84 | O=C(O)COc1ccc(NC(=O)c2csc(NC(=O)NCc3ccccc3)n2)cc1C(=O)O | 219 °C
85 | CC(C)(C)c1ccc(Nc2ncc(-c3ccc4ncncc4c3)c3ccccc23)cc1 | 213 to 214 °C
86 | COc1cnc(CS(C)(=O)=O)nc1O | 230 °C
87 | Sc1nc2ccccc2n1Cc1cc(Cl)cc(Cl)c1 | 233 °C
88 | CCOC(=O)CCCOc1ccc(C23CC4CC(CC(C4)C2)C3)cc1 | 45 to 46 °C
89 | COc1c(Cl)ccc(-c2nc(C(=O)Cl)cc(Cl)c2Cl)c1F | 134 to 136 °C
90 | COCSc1ccc2c(c1)CC[C@@H]1[C@@H]2CC[C@]2(C)C(=O)CC[C@@H]12 | 55 °C
91 | Cc1c(CN2CCc3[nH]c4ccccc4c3C2=O)ncn1C(c1ccccc1)(c1ccccc1)c1ccccc1 | 235 to 236 °C
92 | CCOC(=O)c1nc(-c2ccc(Cl)cc2Cl)n(-c2ccc(Cl)cc2)c1CF | 124 to 125 °C
93 | COc1cc2ncc(C#N)c(Nc3ccc(C)cc3)c2cc1OC | 128 to 130 °C
94 | CCOC(=O)C(NC(=O)C[N+](=O)[O-])C(=O)OCC | 118 to 121 °C
95 | COc1ccc(C2=NN(Cc3ccc(CC(=O)O)cc3)C(=O)[C@H]3CCCC[C@@H]23)cc1OC (relative stereo) | 164 to 166 °C
96 | C=CCc1cc2c(c(CC=C)c1O)S(=O)CN2CC=C (stereo not given) | 110 to 111 °C
97 | CCCCC(CC)COc1ccc2cc3cc(OCC(CC)CCCC)ccc3cc2c1 (stereo not given) | 60 to 62 °C
98 | COC1(c2cccc(Sc3ccc4c(ccc(=O)n4CC(F)(F)F)c3)c2)CCOCC1 | 138 to 140 °C
99 | Cc1nn(C)c(NCC(C)(C)C)c1N=O | 83 to 84 °C
100 | CCC(CC)(CC(=O)Nc1cccc(OCc2ccc3ccc(C(C)=O)cc3n2)c1)C(=O)O | 164 °C

Reference: a melting point compilation (Tetko et al.; mined from patent text by program, amines drawn as free bases though some values may be those of a salt)
